Measurements published in US8236556B2, “Method of modulating gene expression using an ecdysone receptor-based inducible gene expression system” (Intrexon Corporation, priority 2001, dated 2012).

T1: GAL4DmEcR-DEF (Drosophila melanogaster, UniProt P34021)
T1 construct: The D, E, and F domains from fruit fly Drosophila melanogaster EcR; expressed in transfected cells; host or cells: mouse NIH3T3 cells
T1 sequence (P34021 330-878): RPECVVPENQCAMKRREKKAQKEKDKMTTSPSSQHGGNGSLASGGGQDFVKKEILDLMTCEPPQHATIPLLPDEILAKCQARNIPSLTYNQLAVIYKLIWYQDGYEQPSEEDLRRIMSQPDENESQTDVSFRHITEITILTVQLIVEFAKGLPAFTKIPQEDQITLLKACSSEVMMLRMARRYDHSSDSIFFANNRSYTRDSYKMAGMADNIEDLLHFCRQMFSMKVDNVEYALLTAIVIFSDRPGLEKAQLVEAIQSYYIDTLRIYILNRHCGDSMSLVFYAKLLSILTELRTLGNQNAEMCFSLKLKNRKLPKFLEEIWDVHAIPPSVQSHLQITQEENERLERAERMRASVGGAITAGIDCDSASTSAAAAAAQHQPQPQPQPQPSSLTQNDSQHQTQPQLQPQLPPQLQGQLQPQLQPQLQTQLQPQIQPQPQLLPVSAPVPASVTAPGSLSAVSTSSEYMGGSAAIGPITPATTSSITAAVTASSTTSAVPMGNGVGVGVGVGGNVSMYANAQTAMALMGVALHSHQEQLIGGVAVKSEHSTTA

B1: MmRXRα-LmUSP chimera: chimeric RXR LBD: helices 1-7 of MmRXRα-EF and helices 8-12 of LmUSP-EF (SEQ ID NO: 45), fused to VP16 (protein)
chain: MGPKKKRKVAPPTDVSLGDELHLDGEDVAMAHADALDDFDLDMLGDGDSPGPGFTPHDSAPYGALDMADFEFEQMFTDALGIDEYGGEFPANEDMPVEKILEAELAVEPKTETYVEANMGLNPSSPNDPVTNICQAADKQLFTLVEWAKRIPHFSELPLDDQVILLRAGWNELLIASFSHRSIAVKDGILLATGLHVHRNSAHSAGVGAIFDRVLTELVSKMRDMQMDKTELGCLRSVILFNPEVRGLKSAQEVELLREKVYAALEEYTRTTHPDEPGRFAKLLLRLPSLRSIGLKCLEHLFFFRLIGDVPIDTFLMEMLESPSDS

Key:
[1] = system: GAL4CfEcR-DEF; assay: Transactivation of pFRLuc in NIH3T3 cells, VP16 RXR/USP constructs in partnership with GAL4CfEcR-DEF (FIG. 6); assay type: cell-based, Choristoneura fumiferana; settings: for sensitivity of the switch to steroid versus non-steroid ligand: CfEcR/chimeric RXR-based switch (switch 1.13)
Experimental: (§1) Transfections: DNAs corresponding to the various switch constructs outlined in Example 1, specifically switches 1.1 through 1.6 were transfected into mouse NIH3T3 cells (ATCC) and human A549 cells (ATCC) as follows. […] NIH3T3 cells were grown in Dulbecco's modified Eagle medium (DMEM; LifeTechnologies) and A549 cells were grown in F12K nutrient mixture (LifeTechnologies). […] The cells were harvested and reporter activity was assayed. […] Reporter Assays: Cells were harvested 48 hours after adding ligands. […] Twenty μl of lysate were assayed. […] Thus, Applicants have made the surprising discovery that a chimeric RXR ligand binding domain may be used in place of a vertebrate RXR or an invertebrate RXR in an EcR-based inducible gene expression modulation system.
(§2) This Example describes the construction of four EcR-DEF-based gene switches comprising the DEF domains from Choristoneura fumiferana (Lepidoptera), Drosophila melanogaster (Diptera), Tenebrio molitor (Coleoptera), and Amblyomma americanum (Ixodidae) fused to a GAL4 DNA binding domain. In addition, the EF domains of vertebrate RXRs, invertebrate RXRs, or invertebrate USPs from Choristoneura fumiferana USP, Drosophila melanogaster USP, Locusta migratoria USP (Orthoptera), Mus musculus RXRα (Vertebrata), a chimera between MmRXRα and LmUSP (Chimera; of switch 1.13), Amblyomma americanum RXR homolog 1 (Ixodidae), Amblyomma americanum RXR homolog 2 (Ixodidae) were fused to a VP16 activation domain. […] The cells were harvested, lysed and luciferase reporter activity was measured in the cell lysates. Total fly luciferase relative light units are presented. […] The analysis was performed in triplicate and mean luciferase counts [total relative light units (RLU)] were determined as described above.

[2] = biological target: T1, GAL4DmEcR-DEF; assay type: cell-based; settings: NIH3T3 cells; for sensitivity of the switch to steroid versus non-steroid ligand: DmEcR/chimeric RXR-based switch (switch 1.20)
Experimental: as §1, §2

[3] = system: AmaEcR/chimeric RXR-based switch (switch 1.22); assay: Transactivation of pFRLuc in NIH3T3 cells, AmaEcR with chimeric RXR-EF (FIG. 8); assay type: cell-based, Amblyomma americanum; settings: switch 1.22, NIH3T3 cells
Experimental: as §1
(§3) This Example describes the construction of four EcR-DEF-based gene switches comprising the DEF domains from Choristoneura fumiferana (Lepidoptera), Drosophila melanogaster (Diptera), Tenebrio molitor (Coleoptera), and Amblyomma americanum (Ixodidae) fused to a GAL4 DNA binding domain. […] The cells were harvested, lysed and luciferase reporter activity was measured in the cell lysates. […] The analysis was performed in triplicate and mean luciferase counts [total relative light units (RLU)] were determined as described above.

[4] = system: TmEcR/chimeric RXR-based switch (switch 1.21); assay: Transactivation of pFRLuc in NIH3T3 cells, TmEcR with chimeric RXR-EF (FIG. 8); assay type: cell-based, Tenebrio molitor; settings: switch 1.21, NIH3T3 cells
Experimental: as §1, §3

[5] = system: GAL4CfEcR-DEF; assay: HsRXRβ/LmUSP chimeric RXR LBDs with GAL4CfEcR-DEF and pFRLuc in NIH3T3 cells (FIGS. 9 and 10); assay type: cell-based, Choristoneura fumiferana; settings: CfEcR in combination with chimera 11, FIG. 10
Description: This Example describes Applicants' further analysis of gene expression cassettes encoding various chimeric RXR polypeptides comprising a mouse RXRα isoform polypeptide fragment or a human RXRβ isoform polypeptide fragment and an LmUSP polypeptide fragment in mouse NIH3T3 cells.
Three individual clones of each chimeric RXR LBD of Table 1 were transfected into mouse NIH3T3 cells along with either GAL4CfEcR-DEF (switches 1.25-1.29 of Example 1; FIGS. 9 and 10) or GAL4DmEcR-DEF (switches 1.30-1.34 of Example 1; FIG. 11) and the reporter plasmid pFRLuc as described above. The transfected cells were cultured in the presence of either a) 0, 0.2, 1, or 10 μM non-steroidal ligand (FIG. 9), or b) 0, 0.2, 1, or 10 μM steroid ligand PonA or 0, 0.4, 0.2, 1, or 10 μM non-steroid ligand (FIGS. 10 and 11) for 48 hours. The reporter gene activity was measured and total RLU are shown. The number on top of each bar is the maximum fold induction for that treatment and is the mean of three replicates.

[6] = system: GAL4CfEcR-DEF/VP16HsRXRβ-(1-8)-LmUSP-(9-12)-EF (βchimera 9; switch 1.27) gene switch; assay: Effect of 9-cis-retinoic acid as second ligand on transactivation of switch 1.27 in NIH3T3 cells (FIG. 12); assay type: cell-based, Choristoneura fumiferana; settings: 0.04 μM non-steroid ligand, absence of 9-cis-retinoic acid
Experimental: In particular, Applicants have determined the effect of 9-cis-retinoic acid on the transactivation potential of the GAL4CfEcR-DEF/VP16HsRXRβ-(1-8)-LmUSP-(9-12)-EF (βchimera 9; switch 1.27) gene switch along with pFRLuc in NIH 3T3 cells in the presence of non-steroid (GSE) for 48 hours.
Briefly, GAL4CfEcR-DEF, pFRLuc and VP16HsRXRβ-(1-8)-LmUSP-(9-12)-EF (chimera #9) were transfected into NIH3T3 cells and the transfected cells were treated with 0, 0.04, 0.2, 1, 5 and 25 μM non-steroidal ligand (GSE) and 0, 1, 5 and 25 μM 9-cis-retinoic acid (Sigma Chemical Company). The reporter activity was measured at 48 hours after adding ligands.

Molecule | sensitivity of the switch to steroid versus non-steroid ligand [1] | sensitivity of the switch to steroid versus non-steroid ligand [2] | sensitivity of the switch to ligand [3] | sensitivity of the switch to ligand [4] | response of EcR to ligand [5] | induction [6] | fold induction ([1]; partner for CfEcR, FIG. 6) | fold induction ([2]; partner for DmEcR, FIG. 7) [fold]
CC(C)CC[C@@H](O)[C@](C)(O)[C@H]1CC[C@@]2(O)C3=CC(=O)[C@@H]4C[C@@H](O)[C@@H](O)C[C@]4(C)[C@H]3CC[C@]12C [PonA, ponasterone A] | more sensitive to non-steroid than PonA | more sensitive to PonA than non-steroid | more sensitive to PonA | more sensitive to PonA | responded well to non-steroid but not to PonA |  |  | 
CCc1c(OC)cccc1C(=O)NN(C(=O)c1cc(C)cc(C)c1)C(C)(C)C [non-steroid, N-(2-ethyl-3-methoxybenzoyl)-N′-(3,5-dimethylbenzoyl)-N′-tert-butylhydrazine] | more sensitive to non-steroid than PonA | more sensitive to PonA than non-steroid | less sensitive to non-steroid | less sensitive to non-steroid | responded well to non-steroid but not to PonA | very little induction |  | 
B1 |  |  |  |  |  |  | 11,000 fold | 1759
